Laboratory results from patent publication US12091402B2 (Avilar Therapeutics, Inc., priority 2021, dated 2024).
Read-outs that look alike come from different tables or passages of the source.

How the values were obtained:
[1] = molecular target: T1, ASGPR receptor on the cell surface (HepG2 cells) (Homo sapiens, UniProt P07306); assay: Ternary complex formation assay (flow cytometry, HepG2); assay type: cell-based
T1 construct: host or cells: HepG2
T1 sequence (P07306 1-291): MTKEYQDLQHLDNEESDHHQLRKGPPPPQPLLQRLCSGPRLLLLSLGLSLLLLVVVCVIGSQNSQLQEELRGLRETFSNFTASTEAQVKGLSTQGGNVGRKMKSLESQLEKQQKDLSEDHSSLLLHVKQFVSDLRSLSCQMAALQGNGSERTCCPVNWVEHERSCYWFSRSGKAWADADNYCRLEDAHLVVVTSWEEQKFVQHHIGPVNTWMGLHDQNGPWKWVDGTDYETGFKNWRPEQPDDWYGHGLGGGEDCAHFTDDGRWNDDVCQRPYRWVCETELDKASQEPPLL
T1 sequence (P07307 1-311 partner): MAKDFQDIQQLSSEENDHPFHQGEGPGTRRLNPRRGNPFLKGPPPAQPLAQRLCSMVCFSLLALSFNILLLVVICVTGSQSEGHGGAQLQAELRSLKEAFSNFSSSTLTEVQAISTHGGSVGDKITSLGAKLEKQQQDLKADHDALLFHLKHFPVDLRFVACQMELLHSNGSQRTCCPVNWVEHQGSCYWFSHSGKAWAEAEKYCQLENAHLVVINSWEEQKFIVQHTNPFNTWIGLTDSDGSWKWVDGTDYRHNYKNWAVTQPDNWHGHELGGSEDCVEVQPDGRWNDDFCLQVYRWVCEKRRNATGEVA
Text: The ternary complex formation assay is designed to identify the concentration of Degrader required to form a complex between the degrader, a constant concentration of fluorescently-labeled antibody and the ASGPR receptor on the cell surface. The peak mean fluorescence intensity (MFI) occurs at the optimal degrader concentration for ternary complex formation. Sub-optimal concentrations of degrader (too much or too little) results in fewer complexes formed and a reduced […].
Human IgG (Sigma-Aldrich, 14506) was covalently labeled with Alexa Fluor 488 using the Alexa Fluor™ 488 Protein Labeling Kit (Thermo Fisher, A10235) following the manufacturer's instructions. HepG2 cells (ATCC, HIB-8065) were cultured to about 70% confluence and harvested by trypsinization. Single cell suspensions of HepG2 cells were plated in 96 well plates at 1×10^5 cells/well in cell culture media (DMEM supplemented with […]) and placed at 4° C. For studies using human IgG, cells were incubated with 100 nM AF488-labeled anti-human IgG and serial dilutions of IgG-based degrader for 1 hour at 4° C. For studies using DNP, cells were incubated with 100 nM AF488-labeled polyclonal rabbit anti-dinitrophenyl (DNP) antibodies (ThermoFisher) and serial dilutions of DNP-based degrader for 1 hour at 4° C. After washing once with ice-cold PBS containing 0.1% BSA and 0.1% sodium azide, cells were resuspended in 150 uL PBS+0.1% BSA and cell-associated AF488 fluorescence was measured by flow cytometry using the iQue® Screener PLUS Flow Cytometer (IntelliCyt).

HepG2 cells = assay: Cellular uptake assay of AF488-labeled antibody (HepG2); assay type: cell-based; details: HepG2 cells
Method: The cellular uptake assay is designed to measure compound-mediated cellular uptake of fluorescently labeled antibody following ternary complex formation with the ASGPR receptor and endocytosis of the entire complex into cells.
Human IgG (Sigma-Aldrich, 14506) was covalently labeled with Alexa Fluor 488 using the Alexa Fluor™ 488 Protein Labeling Kit (Thermo Fisher, A10235) following the manufacturer's instructions. HepG2 cells were plated in DMEM supplemented with 10% FBS at 5,000 cells per well in a 96-well microtiter plate and incubated for approximately 18 hours at 37° C./5% CO2. For studies using human IgG, 100 nM AF488-labeled human IgG antibodies and serial dilutions of IgG-based degrader (0.1% DMSO final concentration) were added to the cells and the mixture was incubated at 37° C. for 6 hours. For studies using DNP, 100 nM AF488-labeled DNP antibodies and serial dilutions of DNP-based degrader (0.1% DMSO final concentration) were added to the cells and the mixture was incubated at 37° C. for 6 hours. HepG2 cells were fixed in 100% methanol at −20° C. for 20 min, washed 3× with PBS, then stained with DAPI (Thermo, Cat #H3570). HepG2 cells were imaged for DAPI and Alexa Fluor 488 using the Operetta CLS, high-content analysis system (PerkinElmer). Data is presented as the ratio of the number of cells positive for hIgG or DNP (AF-488 fluorescence) over the total cell number (measured by DAPI).

ASGPR = molecular target: T2, ASGPR (Homo sapiens, UniProt P07306); assay: Affinity to ASGPR by surface plasmon resonance (SPR)
T2 sequence (P07306 1-291): T1 sequence (P07306 1-291)

IgG = assay: Affinity to IgG by surface plasmon resonance (SPR); assay type: binding; details: Biacore 8K, 25° C., IgG on CM5 chip; read-out: IgG SPR Binding Kd
Method: Immobilization levels ranging from 1000-1300 resonance units (RU) are obtained. The running buffer is 10 mM HEPES, pH 7.4, 400 mM NaCl, 0.005% P20, […].

[2] = 100 nM AF488-labeled antibody, 37° C. for 6 hours, class symbols, read-out: Uptake Assay EC50
[3] = HepG2 cells, 100 nM AF488-labeled antibody, 1 hour at 4° C., class symbols, read-out: Ternary Complex EC50
[4] = HepG2 cells, ternary complex formation, read-out: TCF EC50

Structure (SMILES)	EC50 [1] [µM]	EC50 (HepG2 cells; [2]) [µM]	EC50 (HepG2 cells; read-out: Uptake EC50) [µM]	also measured
CC(C)C[C@@H]1NC(=O)[C@H](Cc2c[nH]cn2)NC(=O)[C@H](Cc2c[nH]c3ccccc23)NC(=O)[C@H](C)NC(=O)[C@@H](NC(=O)[C@@H](N)CC(=O)O)CSSC[C@@H](C(=O)N[C@H](C(N)=O)[C@@H](C)O)NC(=O)[C@H](Cc2c[nH]c3ccccc23)NC(=O)[C@H](C(C)C)NC(=O)[C@H](CC(C)C)NC(=O)[C@H](CCC(=O)NCCOCCOCCOCCOCCNC(=O)CCCc2cn(CCCCCC(=O)NC(COCCC(=O)NCCOCCOCCOCCOC[C@@]34CO[C@@H](O3)[C@H](Nc3nc(Cl)ns3)[C@@H](O)[C@H]4O)COCCC(=O)NCCOCCOCCOCCOC[C@@]34CO[C@@H](O3)[C@H](Nc3nc(Cl)ns3)[C@@H](O)[C@H]4O)nn2)NC(=O)CNC1=O [Compound 3]	< 0.1	0.5 to 1	< 0.1	EC50 ([1]; read-out: Ternary Complex EC50): < 0.1 µM
CC(C)C[C@@H]1NC(=O)[C@H](Cc2cnc[nH]2)NC(=O)[C@H](Cc2c[nH]c3ccccc23)NC(=O)[C@H](C)NC(=O)[C@@H]2CSSC[C@H](NC(=O)[C@H](Cc3c[nH]c4ccccc34)NC(=O)[C@H](C(C)C)NC(=O)[C@H](CC(C)C)NC(=O)[C@H](CCC(=O)O)NC(=O)CNC1=O)C(=O)N[C@@H]([C@@H](C)O)C(=O)N1CCC[C@@H]1C(=O)N1C[C@@H](NC(=O)COCCOCC(=O)NC(COCCC(=O)NCCOCCOCCOCCOC[C@H]3OC[C@H](Nc4nccc(C(F)(F)F)n4)[C@@H](O)[C@H]3O)COCCC(=O)NCCOCCOCCOCCOC[C@H]3OC[C@H](Nc4nccc(C(F)(F)F)n4)[C@@H](O)[C@H]3O)C[C@H]1C(=O)N[C@@H](CC(=O)O)C(=O)N2 [Compound 47]		< 0.1		EC50 [1, 3]: < 0.1 µM
CC(C)C[C@@H]1NC(=O)[C@H](Cc2c[nH]cn2)NC(=O)[C@H](Cc2c[nH]c3ccccc23)NC(=O)[C@H](C)NC(=O)[C@@H]2CSSC[C@H](NC(=O)[C@H](Cc3c[nH]c4ccccc34)NC(=O)[C@H](C(C)C)NC(=O)[C@H](CC(C)C)NC(=O)[C@H](CCC(=O)O)NC(=O)CNC1=O)C(=O)N[C@@H]([C@@H](C)O)C(=O)N1CCC[C@@H]1C(=O)N1C[C@@H](NC(=O)CCOCCOCCOCCOCCNC(=O)CCCc3cn(CCCCCC(=O)NC(COCCC(=O)NCCOCCOCCOCCO[C@@H]4O[C@H](CO)[C@H](O)[C@H](O)[C@H]4Nc4cncc(C(F)(F)F)n4)COCCC(=O)NCCOCCOCCOCCO[C@@H]4O[C@H](CO)[C@H](O)[C@H](O)[C@H]4Nc4cncc(C(F)(F)F)n4)nn3)C[C@H]1C(=O)N[C@@H](CC(=O)O)C(=O)N2 [Compound 82]	< 0.1		< 0.1	
CC(C)C[C@@H]1NC(=O)[C@H](Cc2c[nH]cn2)NC(=O)[C@H](Cc2c[nH]c3ccccc23)NC(=O)[C@H](C)NC(=O)[C@@H]2CSSC[C@H](NC(=O)[C@H](Cc3c[nH]c4ccccc34)NC(=O)[C@H](C(C)C)NC(=O)[C@H](CC(C)C)NC(=O)[C@H](CCC(=O)O)NC(=O)CNC1=O)C(=O)N[C@@H]([C@@H](C)O)C(=O)N1CCC[C@@H]1C(=O)N1C[C@@H](NC(=O)CCOCCOCCOCCNC(=O)CCCc3cn(CCCCCC(=O)NC(COCCC(=O)NCCOCCOCCOCCOC[C@H]4OC[C@H](Nc5nccc(C(F)(F)F)n5)[C@@H](O)[C@H]4O)COCCC(=O)NCCOCCOCCOCCOC[C@H]4OC[C@H](Nc5nccc(C(F)(F)F)n5)[C@@H](O)[C@H]4O)nn3)C[C@H]1C(=O)N[C@@H](CC(=O)O)C(=O)N2 [Compound 11]	< 0.1	< 0.1		
CC(C)C[C@@H]1NC(=O)[C@H](Cc2c[nH]cn2)NC(=O)[C@H](Cc2c[nH]c3ccccc23)NC(=O)[C@H](C)NC(=O)[C@@H](NC(=O)[C@H](CC(=O)O)NC(=O)CCOCCOCCOCCOCCNC(=O)CCCc2cn(CCCCCC(=O)NC(COCCC(=O)NCCOCCOCCOCCO[C@@H]3O[C@H](CO)[C@H](O)[C@H](O)[C@H]3Nc3cncc(C(F)(F)F)n3)COCCC(=O)NCCOCCOCCOCCO[C@@H]3O[C@H](CO)[C@H](O)[C@H](O)[C@H]3Nc3cncc(C(F)(F)F)n3)nn2)CSSC[C@@H](C(=O)N[C@H](C(N)=O)[C@@H](C)O)NC(=O)[C@H](Cc2c[nH]c3ccccc23)NC(=O)[C@H](C(C)C)NC(=O)[C@H](CC(C)C)NC(=O)[C@H](CCC(=O)O)NC(=O)CNC1=O [Compound 89]			< 0.1	EC50 [1, 4]: < 0.1 µM
CC(C)C[C@@H]1NC(=O)[C@H](Cc2c[nH]cn2)NC(=O)[C@H](Cc2c[nH]c3ccccc23)NC(=O)[C@H](C)NC(=O)[C@@H]2CSSC[C@H](NC(=O)[C@H](Cc3c[nH]c4ccccc34)NC(=O)[C@H](C(C)C)NC(=O)[C@H](CC(C)C)NC(=O)[C@H](CCC(=O)O)NC(=O)CNC1=O)C(=O)N[C@@H]([C@@H](C)O)C(=O)N1CCC[C@@H]1C(=O)N1C[C@@H](NC(=O)CCOCCOCCOCCOCCNC(=O)CCCc3cn(CCCCCC(=O)NC(COCCC(=O)NCCOCCOCCOCCOC[C@H]4OC[C@H](Nc5nccc(C(F)(F)F)n5)[C@@H](O)[C@H]4O)(COCCC(=O)NCCOCCOCCOCCOC[C@H]4OC[C@H](Nc5nccc(C(F)(F)F)n5)[C@@H](O)[C@H]4O)COCCC(=O)NCCOCCOCCOCCOC[C@H]4OC[C@H](Nc5nccc(C(F)(F)F)n5)[C@@H](O)[C@H]4O)nn3)C[C@H]1C(=O)N[C@@H](CC(=O)O)C(=O)N2 [Compound 86]				EC50 [1, 4]: < 0.1 µM; Kd (ASGPR): < 0.1 µM
CC(C)C[C@@H]1NC(=O)[C@H](Cc2cnc[nH]2)NC(=O)[C@H](Cc2c[nH]c3ccccc23)NC(=O)[C@H](C)NC(=O)[C@@H]2CSSC[C@H](NC(=O)[C@H](Cc3c[nH]c4ccccc34)NC(=O)[C@H](C(C)C)NC(=O)[C@H](CC(C)C)NC(=O)[C@H](CCC(=O)O)NC(=O)CNC1=O)C(=O)N[C@@H]([C@@H](C)O)C(=O)N1CCC[C@@H]1C(=O)N1C[C@@H](NC(=O)COCCOCCOCCOC[C@H]3OC[C@H](Nc4nccc(C(F)(F)F)n4)[C@@H](O)[C@H]3O)C[C@H]1C(=O)N[C@@H](CC(=O)O)C(=O)N2 [Compound 60]				EC50 [1, 3]: < 0.1 µM; Kd (IgG): < 0.1 µM
O=C(CCOCC(COCCC(=O)NCCOCCOCCOCCOC[C@@]12CO[C@@H](O1)[C@H](NC(=O)C(F)(F)F)[C@@H](O)[C@H]2O)NC(=O)COCCOCCOCCNc1ccccc1)NCCOCCOCCOCCOC[C@@]12CO[C@@H](O1)[C@H](NC(=O)C(F)(F)F)[C@@H](O)[C@H]2O [A12, 3,3′-((2-(2-(2-(2-(2-(phenylamino)ethoxy)ethoxy)ethoxy)acetamido)propane-1,3-diyl)bis(oxy))bis(N-(1-((1S,2R,3R,4R,5S)-2,3-dihydroxy-4-(2,2,2-trifluoroacetamido)-6,8-dioxabicyclo[3.2.1]octan-1-yl)-2,5,8,11-tetraoxatridecan-13-yl)propanamide)]				EC50 ([1]; HepG2 cells, 100 nM AF488-labeled antibody, 1 hour at 4° C., numeric bounds, read-out: Ternary Complex EC50): > 10 µM
